Measured values: PMC6934184, “Selective DNA-PKcs inhibition extends the therapeutic index of localized radiotherapy and chemotherapy” (The Journal of Clinical Investigation, 2019)

Molecular target: T1, NEK9 (Homo sapiens, UniProt Q8TD19)
T1 construct: purchased Thermo Fisher Scientific (Life Technologies) SelectScreen
Experiment: SelectScreen Z'LYTE
Assay type: biochemical
How it was run: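 Percent values come from Thermo SelectScreen profiling of NU5455, combining activity and binding assays. CSF1R was run in Z'LYTE format at Km app ATP, and CAMK1 in Adapta format with ATP listed at 10.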

T1 sequence (Q8TD19 whole entry): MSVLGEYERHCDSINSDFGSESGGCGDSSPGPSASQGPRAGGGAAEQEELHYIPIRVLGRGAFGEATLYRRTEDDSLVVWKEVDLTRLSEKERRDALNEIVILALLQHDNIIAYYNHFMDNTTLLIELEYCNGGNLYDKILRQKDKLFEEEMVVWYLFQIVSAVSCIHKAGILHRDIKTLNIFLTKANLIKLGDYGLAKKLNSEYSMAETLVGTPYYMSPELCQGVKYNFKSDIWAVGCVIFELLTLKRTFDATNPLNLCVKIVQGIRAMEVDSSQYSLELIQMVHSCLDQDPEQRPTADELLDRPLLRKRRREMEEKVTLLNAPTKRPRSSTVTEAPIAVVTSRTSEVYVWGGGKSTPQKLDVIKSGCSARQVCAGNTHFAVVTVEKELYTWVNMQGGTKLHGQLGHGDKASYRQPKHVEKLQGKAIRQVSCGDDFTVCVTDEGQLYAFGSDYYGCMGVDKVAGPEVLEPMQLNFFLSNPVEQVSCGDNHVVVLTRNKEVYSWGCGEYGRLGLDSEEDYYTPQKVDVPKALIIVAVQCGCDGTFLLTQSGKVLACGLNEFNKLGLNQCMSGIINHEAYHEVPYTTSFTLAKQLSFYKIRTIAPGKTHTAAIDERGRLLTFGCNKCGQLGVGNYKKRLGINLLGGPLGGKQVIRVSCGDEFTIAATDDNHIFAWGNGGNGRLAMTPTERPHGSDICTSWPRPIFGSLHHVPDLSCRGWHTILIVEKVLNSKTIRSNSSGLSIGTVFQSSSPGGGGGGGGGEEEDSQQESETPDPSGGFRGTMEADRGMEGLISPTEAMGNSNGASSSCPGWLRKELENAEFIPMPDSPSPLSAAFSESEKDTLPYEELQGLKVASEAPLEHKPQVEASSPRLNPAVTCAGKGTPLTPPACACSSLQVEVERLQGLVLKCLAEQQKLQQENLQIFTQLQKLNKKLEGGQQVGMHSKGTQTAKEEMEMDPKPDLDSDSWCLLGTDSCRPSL

CN(C(=O)CN1CCOCC1)c1ccc2sc3c(-c4cccc5c(=O)cc(N6CC7CCC(C6)O7)oc45)cccc3c2c1 [NU5455]
inhibition at 1 µM: -7.2%
